Experimental data reported in the kinase profiling compilation of Christmann-Franck et al. (2016).

What was measured:
Assay in all cases: KINOMEscan competition binding
Conditions in all cases: compound 10.0 µM
[1] = target: LIMK2 (human) (UniProt P53671)
[2] = target: CASK (human) (UniProt O14936)
[3] = target: TAOK2 (human) (UniProt Q9UL54)
[4] = target: MAP2K1 (human) (UniProt Q02750)
[5] = target: SRC (human) (UniProt P12931)
[6] = target: SRPK1 (human) (UniProt Q96SB4)
[7] = test system: MET (human), P08581 [Y1235D]
[8] = target: EIF2AK1 (human) (UniProt Q9BQI3)
[9] = target: CSNK2A2 (human) (UniProt P19784)
[10] = target: ROCK2 (human) (UniProt O75116)
[11] = target: PIM3 (human) (UniProt Q86V86)
[12] = target: MARK1 (human) (UniProt Q9P0L2)
[13] = target: EPHA8 (human) (UniProt P29322)
[14] = target: RPS6KA5 KD2 (human) (UniProt O75582)
[15] = target: MAP3K9 (human) (UniProt P80192)
Sequence of MAP3K9 (human) (P80192 whole entry, looked up): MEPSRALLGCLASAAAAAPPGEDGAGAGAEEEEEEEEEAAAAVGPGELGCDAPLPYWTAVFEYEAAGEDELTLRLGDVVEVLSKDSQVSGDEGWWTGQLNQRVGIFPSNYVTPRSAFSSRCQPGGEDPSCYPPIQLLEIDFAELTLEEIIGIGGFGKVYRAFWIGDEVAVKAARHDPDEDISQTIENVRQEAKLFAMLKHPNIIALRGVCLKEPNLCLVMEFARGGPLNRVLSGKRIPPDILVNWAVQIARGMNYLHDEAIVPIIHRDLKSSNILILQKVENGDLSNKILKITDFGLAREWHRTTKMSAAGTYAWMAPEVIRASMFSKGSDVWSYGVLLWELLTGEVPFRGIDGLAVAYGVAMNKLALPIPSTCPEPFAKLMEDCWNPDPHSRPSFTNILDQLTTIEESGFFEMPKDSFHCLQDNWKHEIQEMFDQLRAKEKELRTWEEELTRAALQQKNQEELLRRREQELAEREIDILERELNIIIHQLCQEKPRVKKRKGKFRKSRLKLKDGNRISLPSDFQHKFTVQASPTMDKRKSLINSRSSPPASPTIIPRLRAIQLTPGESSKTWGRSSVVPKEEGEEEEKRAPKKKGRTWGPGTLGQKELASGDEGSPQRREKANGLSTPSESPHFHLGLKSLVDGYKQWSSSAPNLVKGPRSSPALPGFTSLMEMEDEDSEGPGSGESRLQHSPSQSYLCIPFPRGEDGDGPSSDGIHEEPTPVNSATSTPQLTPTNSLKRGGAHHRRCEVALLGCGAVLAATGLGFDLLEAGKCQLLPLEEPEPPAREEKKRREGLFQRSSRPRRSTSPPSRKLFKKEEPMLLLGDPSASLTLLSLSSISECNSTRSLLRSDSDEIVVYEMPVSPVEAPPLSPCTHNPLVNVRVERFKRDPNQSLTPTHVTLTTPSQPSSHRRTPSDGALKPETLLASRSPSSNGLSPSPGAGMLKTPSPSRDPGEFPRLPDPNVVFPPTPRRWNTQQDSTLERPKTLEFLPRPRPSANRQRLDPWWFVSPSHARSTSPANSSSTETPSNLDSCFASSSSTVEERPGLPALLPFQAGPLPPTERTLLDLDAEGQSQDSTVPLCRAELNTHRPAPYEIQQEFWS

[16] = target: DDR2 (human) (UniProt Q16832)
[17] = target: CLK1 (human) (UniProt P49759)
[18] = target: MAP2K2 (human) (UniProt P36507)
[19] = target: IRAK1 (human) (UniProt P51617)
[20] = target: DYRK1A (human) (UniProt Q13627)
[21] = target: AXL (human) (UniProt P30530)
[22] = target: MAPK1 (human) (UniProt P28482)
[23] = target: MAP2K3 (human) (UniProt P46734)
[24] = target: PAK1 (human) (UniProt Q13153)
[25] = target: TYK2 JH2 pseudokinase (human) (UniProt P29597)
Sequence of TYK2 JH2 pseudokinase (human) (P29597 whole entry, looked up): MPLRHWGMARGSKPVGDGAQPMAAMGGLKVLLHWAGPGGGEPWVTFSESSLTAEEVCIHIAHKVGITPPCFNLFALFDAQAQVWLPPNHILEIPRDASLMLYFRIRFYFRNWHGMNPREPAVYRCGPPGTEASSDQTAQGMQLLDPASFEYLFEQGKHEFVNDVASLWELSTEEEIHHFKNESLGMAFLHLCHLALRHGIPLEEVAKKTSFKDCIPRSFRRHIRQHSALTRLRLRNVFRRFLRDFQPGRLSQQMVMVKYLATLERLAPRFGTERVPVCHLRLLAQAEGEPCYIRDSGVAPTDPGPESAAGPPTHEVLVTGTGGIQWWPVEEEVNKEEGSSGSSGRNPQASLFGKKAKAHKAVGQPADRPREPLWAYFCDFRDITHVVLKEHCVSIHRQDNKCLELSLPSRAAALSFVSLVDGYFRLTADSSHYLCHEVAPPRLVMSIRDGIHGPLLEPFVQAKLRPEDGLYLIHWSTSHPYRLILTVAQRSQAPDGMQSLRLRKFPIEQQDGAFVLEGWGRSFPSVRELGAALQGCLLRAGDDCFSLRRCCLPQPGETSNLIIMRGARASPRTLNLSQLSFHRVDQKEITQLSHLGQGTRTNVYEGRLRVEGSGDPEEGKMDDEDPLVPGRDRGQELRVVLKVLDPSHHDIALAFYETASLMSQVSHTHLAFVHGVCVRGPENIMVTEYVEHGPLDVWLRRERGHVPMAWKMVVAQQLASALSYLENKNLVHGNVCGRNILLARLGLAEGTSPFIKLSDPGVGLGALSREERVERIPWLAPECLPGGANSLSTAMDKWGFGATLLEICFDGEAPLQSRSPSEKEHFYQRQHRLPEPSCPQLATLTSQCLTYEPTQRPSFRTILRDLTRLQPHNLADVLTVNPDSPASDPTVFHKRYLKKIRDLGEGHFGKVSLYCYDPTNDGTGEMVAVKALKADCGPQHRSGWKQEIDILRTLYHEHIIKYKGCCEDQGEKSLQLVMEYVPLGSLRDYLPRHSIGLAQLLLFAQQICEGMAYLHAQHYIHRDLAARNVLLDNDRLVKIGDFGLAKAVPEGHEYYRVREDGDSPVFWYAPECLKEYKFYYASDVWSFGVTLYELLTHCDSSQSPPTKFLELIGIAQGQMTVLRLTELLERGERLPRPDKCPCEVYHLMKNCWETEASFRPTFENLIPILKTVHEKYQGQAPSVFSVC

[26] = target: TNK2 (human) (UniProt Q07912)
Sequence of TNK2 (human) (Q07912 whole entry, looked up): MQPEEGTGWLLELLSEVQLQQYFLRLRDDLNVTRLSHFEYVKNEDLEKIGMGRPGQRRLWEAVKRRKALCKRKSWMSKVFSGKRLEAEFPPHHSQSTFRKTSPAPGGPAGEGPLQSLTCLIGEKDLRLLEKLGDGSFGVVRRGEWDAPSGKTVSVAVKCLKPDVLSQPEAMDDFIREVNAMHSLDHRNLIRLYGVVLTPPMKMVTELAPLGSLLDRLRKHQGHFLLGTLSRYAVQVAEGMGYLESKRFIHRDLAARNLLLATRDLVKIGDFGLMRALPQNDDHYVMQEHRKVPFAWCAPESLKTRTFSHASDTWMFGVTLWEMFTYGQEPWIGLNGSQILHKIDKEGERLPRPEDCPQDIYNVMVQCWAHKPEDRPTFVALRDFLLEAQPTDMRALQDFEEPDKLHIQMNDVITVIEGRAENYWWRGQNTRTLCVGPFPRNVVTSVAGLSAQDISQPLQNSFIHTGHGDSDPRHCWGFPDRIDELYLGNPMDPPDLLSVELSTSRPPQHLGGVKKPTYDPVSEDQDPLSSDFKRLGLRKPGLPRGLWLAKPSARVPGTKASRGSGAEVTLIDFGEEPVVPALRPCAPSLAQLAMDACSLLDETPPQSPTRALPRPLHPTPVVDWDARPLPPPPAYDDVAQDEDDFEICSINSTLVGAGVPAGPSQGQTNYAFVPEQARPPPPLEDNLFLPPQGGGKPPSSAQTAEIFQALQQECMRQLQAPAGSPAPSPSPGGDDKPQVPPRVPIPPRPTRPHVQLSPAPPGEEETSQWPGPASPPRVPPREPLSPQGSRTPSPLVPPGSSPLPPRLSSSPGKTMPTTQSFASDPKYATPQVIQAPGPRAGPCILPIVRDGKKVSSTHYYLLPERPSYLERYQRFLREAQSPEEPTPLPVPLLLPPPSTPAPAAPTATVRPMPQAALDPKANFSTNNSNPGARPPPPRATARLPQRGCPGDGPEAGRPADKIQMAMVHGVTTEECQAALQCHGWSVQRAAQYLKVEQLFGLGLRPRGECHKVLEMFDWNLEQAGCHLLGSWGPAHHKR

[27] = test system: RET (human), P07949 [V804M]
[28] = target: RET (human) (UniProt P07949)
[29] = target: EGFR (human) (UniProt P00533)
[30] = target: MST1R (human) (UniProt Q04912)
[31] = target: BRSK1 (human) (UniProt Q8TDC3)
[32] = target: MAPK12 (human) (UniProt P53778)
[33] = target: VRK2 (human) (UniProt Q86Y07)
[34] = target: CHUK (human) (UniProt O15111)
[35] = target: FLT4 (human) (UniProt P35916)
[36] = target: RIOK3 (human) (UniProt O14730)
Sequence of RIOK3 (human) (O14730 whole entry, looked up): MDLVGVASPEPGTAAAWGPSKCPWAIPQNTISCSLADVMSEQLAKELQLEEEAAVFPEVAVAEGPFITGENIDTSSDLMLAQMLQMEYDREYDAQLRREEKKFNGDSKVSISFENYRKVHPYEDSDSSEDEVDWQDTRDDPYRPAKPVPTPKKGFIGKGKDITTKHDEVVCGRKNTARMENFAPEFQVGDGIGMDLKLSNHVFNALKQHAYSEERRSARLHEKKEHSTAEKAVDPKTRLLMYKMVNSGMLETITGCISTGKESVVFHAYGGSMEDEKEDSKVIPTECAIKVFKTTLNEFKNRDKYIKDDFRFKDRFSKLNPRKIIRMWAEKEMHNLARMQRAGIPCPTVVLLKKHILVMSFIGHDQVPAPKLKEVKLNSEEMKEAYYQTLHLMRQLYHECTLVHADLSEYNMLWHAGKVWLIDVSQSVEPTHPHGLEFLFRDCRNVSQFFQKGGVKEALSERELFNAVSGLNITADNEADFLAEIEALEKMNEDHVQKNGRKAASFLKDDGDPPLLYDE

[37] = target: CAMK2D (human) (UniProt Q13557)
[38] = target: CSNK2A1 (human) (UniProt P68400)
Sequence of CSNK2A1 (human) (P68400 whole entry, looked up): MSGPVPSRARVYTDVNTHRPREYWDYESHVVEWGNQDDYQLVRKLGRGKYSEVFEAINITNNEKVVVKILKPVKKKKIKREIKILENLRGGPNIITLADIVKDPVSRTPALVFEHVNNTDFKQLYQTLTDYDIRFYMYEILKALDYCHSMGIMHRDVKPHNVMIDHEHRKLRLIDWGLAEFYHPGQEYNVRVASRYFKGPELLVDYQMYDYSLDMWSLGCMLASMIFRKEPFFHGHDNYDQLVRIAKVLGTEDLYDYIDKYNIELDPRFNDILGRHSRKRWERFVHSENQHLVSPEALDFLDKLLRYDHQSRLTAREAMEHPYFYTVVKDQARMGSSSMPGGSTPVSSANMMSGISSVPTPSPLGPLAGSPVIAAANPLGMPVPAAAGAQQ

[39] = target: CSNK1A1 (human) (UniProt P48729)
[40] = target: SGK110 (human) (UniProt P0C264)

Sequence of LIMK2 (human) (P53671 whole entry, looked up): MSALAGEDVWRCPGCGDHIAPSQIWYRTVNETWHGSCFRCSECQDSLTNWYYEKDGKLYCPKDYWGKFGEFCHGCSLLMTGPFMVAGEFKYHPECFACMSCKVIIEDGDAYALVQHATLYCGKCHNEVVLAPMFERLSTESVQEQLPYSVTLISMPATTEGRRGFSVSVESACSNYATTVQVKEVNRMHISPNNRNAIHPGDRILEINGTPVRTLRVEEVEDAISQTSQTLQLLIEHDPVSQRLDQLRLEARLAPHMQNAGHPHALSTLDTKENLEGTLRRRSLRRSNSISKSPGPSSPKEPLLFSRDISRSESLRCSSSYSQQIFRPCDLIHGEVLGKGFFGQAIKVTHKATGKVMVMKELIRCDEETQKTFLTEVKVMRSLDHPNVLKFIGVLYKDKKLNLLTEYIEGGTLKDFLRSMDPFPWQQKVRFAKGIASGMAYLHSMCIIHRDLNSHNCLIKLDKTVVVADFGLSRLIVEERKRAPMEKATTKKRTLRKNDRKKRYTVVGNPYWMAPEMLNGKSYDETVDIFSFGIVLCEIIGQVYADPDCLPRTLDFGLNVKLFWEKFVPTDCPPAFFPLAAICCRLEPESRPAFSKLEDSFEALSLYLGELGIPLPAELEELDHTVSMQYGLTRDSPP

Compound `C=CC(=O)Nc1cc(-n2c(=O)ccc3cnc4ccc(-c5cn[nH]c5)cc4c32)ccc1C` has a kinase still bound, per cent of control [1] of 100%, a kinase still bound, per cent of control [2] of 58% and a kinase still bound, per cent of control [3] of 76%. The kinase still bound, per cent of control [4] was 69%, the kinase still bound, per cent of control [5] was 100% and the kinase still bound, per cent of control [6] was 39%. The kinase still bound, per cent of control [7] was 100%, the kinase still bound, per cent of control [8] was 100% and the kinase still bound, per cent of control [9] was 1.2%. For the same compound, the kinase still bound, per cent of control [10] was 72%, the kinase still bound, per cent of control [11] was 42% and the kinase still bound, per cent of control [12] was 78%. For the same compound, the kinase still bound, per cent of control [13] was 96%, the kinase still bound, per cent of control [14] was 75% and the kinase still bound, per cent of control [15] was 86%. The kinase still bound, per cent of control [16] was 75%, the kinase still bound, per cent of control [17] was 0.4% and the kinase still bound, per cent of control [18] was 83%. The kinase still bound, per cent of control [19] was 41%, the kinase still bound, per cent of control [20] was 0.1% and the kinase still bound, per cent of control [21] was 100%. The kinase still bound, per cent of control [22] was 100%, the kinase still bound, per cent of control [23] was 8.6% and the kinase still bound, per cent of control [24] was 100%. For the same compound, the kinase still bound, per cent of control [25] was 36%, the kinase still bound, per cent of control [26] was 100% and the kinase still bound, per cent of control [27] was 68%. For the same compound, the kinase still bound, per cent of control [28] was 55%, the kinase still bound, per cent of control [29] was 30% and the kinase still bound, per cent of control [30] was 99%. The kinase still bound, per cent of control [31] was 82%, the kinase still bound, per cent of control [32] was 98% and the kinase still bound, per cent of control [33] was 88%. For the same compound, the kinase still bound, per cent of control [34] was 100%, the kinase still bound, per cent of control [35] was 65% and the kinase still bound, per cent of control [36] was 31%. It also gave a kinase still bound, per cent of control [37] of 36%, a kinase still bound, per cent of control [38] of 4.6% and a kinase still bound, per cent of control [39] of 81%. The kinase still bound, per cent of control [40] was 100%.
`COc1cc2ncnc(-n3nc(-c4ccccn4)nc3N)c2cc1OC` gave a kinase still bound, per cent of control [1] of 20%, a kinase still bound, per cent of control [2] of 26% and a kinase still bound, per cent of control [3] of 42%. It also gave a kinase still bound, per cent of control [4] of 64%, a kinase still bound, per cent of control [5] of 6.7% and a kinase still bound, per cent of control [6] of 83%. It also gave a kinase still bound, per cent of control [7] of 40%, a kinase still bound, per cent of control [8] of 51% and a kinase still bound, per cent of control [9] of 5.2%. It also gave a kinase still bound, per cent of control [10] of 20%, a kinase still bound, per cent of control [11] of 7.6% and a kinase still bound, per cent of control [12] of 86%. It also gave a kinase still bound, per cent of control [13] of 59%, a kinase still bound, per cent of control [14] of 33% and a kinase still bound, per cent of control [15] of 70%. It also gave a kinase still bound, per cent of control [16] of 22%, a kinase still bound, per cent of control [17] of 0.6% and a kinase still bound, per cent of control [18] of 74%. It also gave a kinase still bound, per cent of control [19] of 2.8%, a kinase still bound, per cent of control [20] of 0.1% and a kinase still bound, per cent of control [21] of 6%. For the same compound, the kinase still bound, per cent of control [22] was 56%, the kinase still bound, per cent of control [23] was 27% and the kinase still bound, per cent of control [24] was 70%. For the same compound, the kinase still bound, per cent of control [25] was 0%, the kinase still bound, per cent of control [26] was 54% and the kinase still bound, per cent of control [27] was 66%. For the same compound, the kinase still bound, per cent of control [28] was 20%, the kinase still bound, per cent of control [29] was 52% and the kinase still bound, per cent of control [30] was 100%. The kinase still bound, per cent of control [31] was 18%, the kinase still bound, per cent of control [32] was 21% and the kinase still bound, per cent of control [33] was 9.8%. It also gave a kinase still bound, per cent of control [34] of 44%, a kinase still bound, per cent of control [35] of 14% and a kinase still bound, per cent of control [36] of 32%. The kinase still bound, per cent of control [37] was 55%, the kinase still bound, per cent of control [38] was 4.4% and the kinase still bound, per cent of control [39] was 1.4%. The kinase still bound, per cent of control [40] was 100%.
